Consider 22 compounds from patent US20250171457A1, “NITROGEN-CONTAINING HETEROCYCLIC COMPOUND HAVING NRF2 ACTIVATION EFFECT” (CHUGAI SEIYAKU KABUSHIKI KAISHA, priority 2022, published 2025).

For the test, the system named is Nrf2 transcriptional activity (pARE-Luc reporter) in HepG2 cells. Kind of test: In vitro Nrf2 transcriptional activity measurement by ARE-dependent reporter assay in HepG2 cell. The test is classed as cell-based, human. As to conditions: Homo sapiens; HepG2 cells transfected with pARE-Luc, 4 hours at 37° C.; luciferase activity of Example 1-54 or Example 17-23 at 3.75 μM defined as 100%. The procedure: Test Example 1: In Vitro Nrf2 Transcriptional Activity Measurement by ARE-Dependent Reporter Assay in HepG2 Cell
A human liver cancer-derived cell line HepG2 was transfected with pGL4.37 vector (pARE-Luc, Promega Corp.) and incubated overnight at 37° C. in a humidified atmosphere containing 5% CO2. The cells were dissociated by trypsin treatment, inoculated to a 384-well plate supplemented with a test compound, and incubated at 37° C. for 4 hours. Then, Bright-Glo Reagent (Promega Corp.) was added to the plate, and luciferase activity was measured with Envision plate reader.
Luciferase activity obtained through the action of the compound of Example 1-54 or Example 17-23 at a concentration of 3.75 μM was defined as 100%. The luciferase activity of each well was converted to a response rate (%). The dose-response curve of the compound of each Example was prepared to calculate a 50% effective concentration (EC50).

The term EC50 denotes the concentration giving half of the maximal effect. Turning to `O=C(O)c1cc(F)c(-c2cccc3c2OCN(C(=O)c2c(Cl)cc(N4CC(O)(c5ccccc5)C4)cc2Cl)C3)cc1N1C2CCC1COC2` [Compound 1-16, 4-[3-[2,6-Dichloro-4-(3-hydroxy-3-phenylazetidin-1-yl)benzoyl]-2,4-dihydro-1,3-benzoxazin-8-yl]-5-fluoro-2-(3-oxa-8-azabicyclo[3.2.1]octan-8-yl)benzoic acid], the midpoint of the response, the EC50, lay at 11 nM.

On to `O=C(O)c1cc(F)c(-c2cccc3c2OCN(C(=O)c2c(Cl)cc(N4CC(O)C4)cc2Cl)C3)cc1N1C2CCC1COC2` [Compound 1-17, 4-[3-[2,6-Dichloro-4-(3-hydroxyazetidin-1-yl)benzoyl]-2,4-dihydro-1,3-benzoxazin-8-yl]-5-fluoro-2-(3-oxa-8-azabicyclo[3.2.1]octan-8-yl)benzoic acid], for which the EC50 worked out at 19 nM.

`O=C(O)c1cc(F)c(-c2cccc3c2OCN(C(=O)c2c(Cl)cc(N4CC(F)(F)C4)cc2Cl)C3)cc1N1C2CCC1COC2` [Compound 1-19, 4-[3-[2,6-Dichloro-4-(3,3-difluoroazetidin-1-yl)benzoyl]-2,4-dihydro-1,3-benzoxazin-8-yl]-5-fluoro-2-(3-oxa-8-azabicyclo[3.2.1]octan-8-yl)benzoic acid]: the concentration giving a half-maximal response (EC50) is 6.3 nM.

`O=C(O)c1cc(F)c(-c2cccc3c2OCN(C(=O)c2c(Cl)cc(N4CC(F)C4)cc2Cl)C3)cc1N1C2CCC1COC2` [Compound 1-20, 4-[3-[2,6-Dichloro-4-(3-fluoroazetidin-1-yl)benzoyl]-2,4-dihydro-1,3-benzoxazin-8-yl]-5-fluoro-2-(3-oxa-8-azabicyclo[3.2.1]octan-8-yl)benzoic acid] had a concentration for a half-maximal effect (EC50) of 3.2 nM.

`CO[C@@H]1COC2(C1)CN(c1cc(Cl)c(C(=O)N3COc4c(cccc4-c4cc(N5C6CCC5COC6)c(C(=O)O)cc4F)C3)c(Cl)c1)C2` [Compound 1-22, 4-[3-[2,6-Dichloro-4-[(7S)-7-methoxy-5-oxa-2-azaspiro[3.4]octan-2-yl]benzoyl]-2,4-dihydro-1,3-benzoxazin-8-yl]-5-fluoro-2-(3-oxa-8-azabicyclo[3.2.1]octan-8-yl)benzoic acid] yielded an EC50 of 2.1 nM.

Compound `CO[C@H]1COC2(C1)CN(c1cc(Cl)c(C(=O)N3COc4c(cccc4-c4cc(N5C6CCC5COC6)c(C(=O)O)cc4F)C3)c(Cl)c1)C2` [Compound 1-23, 4-[3-[2,6-Dichloro-4-[(7R)-7-methoxy-5-oxa-2-azaspiro[3.4]octan-2-yl]benzoyl]-2,4-dihydro-1,3-benzoxazin-8-yl]-5-fluoro-2-(3-oxa-8-azabicyclo[3.2.1]octan-8-yl)benzoic acid] had a concentration giving a half-maximal response (EC50) of 1.9 nM.

For `CO[C@H]1C[C@@]2(CN(c3cc(Cl)c(C(=O)N4COc5c(cccc5-c5cc(N6C7CCC6COC7)c(C(=O)O)cc5F)C4)c(Cl)c3)[C@@H]2C)C1` [Compound 1-24, 4-[3-[2,6-Dichloro-4-[(1R,4r,6R)-6-methoxy-1-methyl-2-azaspiro[3.3]heptan-2-yl]benzoyl]-2,4-dihydro-1,3-benzoxazin-8-yl]-5-fluoro-2-(3-oxa-8-azabicyclo[3.2.1]octan-8-yl)benzoic acid], it took 1.4 nM to reach a half-maximal effect (EC50).

Compound `CO[C@H]1C[C@@]2(CN(c3cc(Cl)c(C(=O)N4COc5c(cccc5-c5cc(N6C7CCC6COC7)c(C(=O)O)cc5F)C4)c(Cl)c3)[C@H]2C)C1` [Compound 1-25, 4-[3-[2,6-Dichloro-4-[(1S,4r,6S)-6-methoxy-1-methyl-2-azaspiro[3.3]heptan-2-yl]benzoyl]-2,4-dihydro-1,3-benzoxazin-8-yl]-5-fluoro-2-(3-oxa-8-azabicyclo[3.2.1]octan-8-yl)benzoic acid] yielded an EC50 of 1.5 nM.

Compound `CO[C@H]1C[C@]2(CN(c3cc(Cl)c(C(=O)N4COc5c(cccc5-c5cc(N6C7CCC6COC7)c(C(=O)O)cc5F)C4)c(Cl)c3)[C@@H]2C)C1` [Compound 1-26, 4-[3-[2,6-Dichloro-4-[(1R,4s,6S)-6-methoxy-1-methyl-2-azaspiro[3.3]heptan-2-yl]benzoyl]-2,4-dihydro-1,3-benzoxazin-8-yl]-5-fluoro-2-(3-oxa-8-azabicyclo[3.2.1]octan-8-yl)benzoic acid] gave an EC50 of 1.4 nM.

`CO[C@H]1C[C@]2(CN(c3cc(Cl)c(C(=O)N4COc5c(cccc5-c5cc(N6C7CCC6COC7)c(C(=O)O)cc5F)C4)c(Cl)c3)[C@H]2C)C1` [Compound 1-27, 4-[3-[2,6-Dichloro-4-[(1S,4s,6R)-6-methoxy-1-methyl-2-azaspiro[3.3]heptan-2-yl]benzoyl]-2,4-dihydro-1,3-benzoxazin-8-yl]-5-fluoro-2-(3-oxa-8-azabicyclo[3.2.1]octan-8-yl)benzoic acid]: the concentration for a half-maximal effect (EC50) is 2.9 nM.

As to `CO[C@@H]1CCOC12CN(c1cc(Cl)c(C(=O)N3COc4c(cccc4-c4cc(N5C6CCC5COC6)c(C(=O)O)cc4F)C3)c(Cl)c1)C2` [Compound 1-30, 4-[3-[2,6-Dichloro-4-[(8R)-8-methoxy-5-oxa-2-azaspiro[3.4]octan-2-yl]benzoyl]-2,4-dihydro-1,3-benzoxazin-8-yl]-5-fluoro-2-(3-oxa-8-azabicyclo[3.2.1]octan-8-yl)benzoic acid], the EC50 is 2.6 nM.

Take `CO[C@H]1CCOC12CN(c1cc(Cl)c(C(=O)N3COc4c(cccc4-c4cc(N5C6CCC5COC6)c(C(=O)O)cc4F)C3)c(Cl)c1)C2` [Compound 1-31, 4-[3-[2,6-Dichloro-4-[(8S)-8-methoxy-5-oxa-2-azaspiro[3.4]octan-2-yl]benzoyl]-2,4-dihydro-1,3-benzoxazin-8-yl]-5-fluoro-2-(3-oxa-8-azabicyclo[3.2.1]octan-8-yl)benzoic acid]: a half-maximal response (EC50) required 1.9 nM.

On to `O=C(O)c1cc(F)c(-c2cccc3c2OCN(C(=O)c2c(Cl)cc(N4CCNC(C(F)(F)F)C4)cc2Cl)C3)cc1N1C2CCC1COC2` (stereo not shown) [Compound 1-32, 4-[3-[2,6-Dichloro-4-[3-(trifluoromethyl)piperazin-1-yl]benzoyl]-2,4-dihydro-1,3-benzoxazin-8-yl]-5-fluoro-2-(3-oxa-8-azabicyclo[3.2.1]octan-8-yl)benzoic acid], for which the 50% effective concentration (EC50) turned out to be 1.5 nM.

With `CN1CCN(c2cc(Cl)c(C(=O)N3COc4c(cccc4-c4cc(N5C6CCC5COC6)c(C(=O)O)cc4F)C3)c(Cl)c2)CC12COC2` [Compound 1-34, 4-[3-[2,6-Dichloro-4-(5-methyl-2-oxa-5,8-diazaspiro[3.5]nonan-8-yl)benzoyl]-2,4-dihydro-1,3-benzoxazin-8-yl]-5-fluoro-2-(3-oxa-8-azabicyclo[3.2.1]octan-8-yl)benzoic acid], the concentration for a half-maximal effect (EC50) came out at 39 nM.

As to `O=C(O)c1cc(F)c(-c2cccc3c2OCN(C(=O)c2c(Cl)cc(N4CCN(CC(F)(F)F)CC4)cc2Cl)C3)cc1N1C2CCC1COC2` [Compound 1-35, 4-[3-[2,6-Dichloro-4-[4-(2,2,2-trifluoroethyl)piperazin-1-yl]benzoyl]-2,4-dihydro-1,3-benzoxazin-8-yl]-5-fluoro-2-(3-oxa-8-azabicyclo[3.2.1]octan-8-yl)benzoic acid], the EC50 was found to be 5.8 nM.

In turn, `CN1CC2CCCC(C1)N2c1cc(Cl)c(C(=O)N2COc3c(cccc3-c3cc(N4C5CCC4COC5)c(C(=O)O)cc3F)C2)c(Cl)c1` [Compound 1-36, 4-[3-[2,6-Dichloro-4-(3-methyl-3,9-diazabicyclo[3.3.1]nonan-9-yl)benzoyl]-2,4-dihydro-1,3-benzoxazin-8-yl]-5-fluoro-2-(3-oxa-8-azabicyclo[3.2.1]octan-8-yl)benzoic acid] showed an EC50 of 1.8 nM.

`O=C(O)c1cc(F)c(-c2cccc3c2OCN(C(=O)c2c(Cl)cc(N4CC5CCC(C4)O5)cc2Cl)C3)cc1N1C2CCC1COC2` [Compound 1-37, 4-[3-[2,6-Dichloro-4-(8-oxa-3-azabicyclo[3.2.1]octan-3-yl)benzoyl]-2,4-dihydro-1,3-benzoxazin-8-yl]-5-fluoro-2-(3-oxa-8-azabicyclo[3.2.1]octan-8-yl)benzoic acid] had a concentration giving a half-maximal response (EC50) of 2.1 nM.

`O=C(O)c1cc(F)c(-c2cccc3c2OCN(C(=O)c2c(Cl)cc(N4CCOC5CC54)cc2Cl)C3)cc1N1C2CCC1COC2` (stereo not shown) [Compound 1-38, 4-[3-[2,6-Dichloro-4-(2-oxa-5-azabicyclo[4.1.0]heptan-5-yl)benzoyl]-2,4-dihydro-1,3-benzoxazin-8-yl]-5-fluoro-2-(3-oxa-8-azabicyclo[3.2.1]octan-8-yl)benzoic acid] came in with an EC50 of 1.8 nM.

Compound `O=C(O)c1cc(F)c(-c2cccc3c2OCN(C(=O)c2c(Cl)cc(N4CCn5nccc5C4)cc2Cl)C3)cc1N1C2CCC1COC2` [Compound 1-39] registered a half-maximal effective concentration (EC50) of 18 nM.

As for `COC1CN(c2cc(Cl)c(C(=O)N3COc4c(cccc4-c4cc(N5C6CCC5COC6)c(C(=O)O)cc4F)C3)c(Cl)c2)CCO1` (stereo not shown) [Compound 1-40, 4-[3-[2,6-Dichloro-4-(2-methoxymorpholin-4-yl)benzoyl]-2,4-dihydro-1,3-benzoxazin-8-yl]-5-fluoro-2-(3-oxa-8-azabicyclo[3.2.1]octan-8-yl)benzoic acid], the EC50 worked out at 3 nM.

In the case of `O=C(O)c1cc(F)c(-c2cccc3c2OCN(C(=O)c2c(Cl)cc(N4C5CCC4COC5)cc2Cl)C3)cc1N1C2CCC1COC2` [Compound 1-41, 4-[3-[2,6-Dichloro-4-(3-oxa-8-azabicyclo[3.2.1]octan-8-yl)benzoyl]-2,4-dihydro-1,3-benzoxazin-8-yl]-5-fluoro-2-(3-oxa-8-azabicyclo[3.2.1]octan-8-yl)benzoic acid], the midpoint of the response, the EC50, lay at 2 nM.

Compound `C[C@@H]1COCCN1c1cc(Cl)c(C(=O)N2COc3c(cccc3-c3cc(N4C5CCC4COC5)c(C(=O)O)cc3F)C2)c(Cl)c1` [Compound 1-42, 4-[3-[2,6-Dichloro-4-[(3R)-3-methylmorpholin-4-yl]benzoyl]-2,4-dihydro-1,3-benzoxazin-8-yl]-5-fluoro-2-(3-oxa-8-azabicyclo[3.2.1]octan-8-yl)benzoic acid] yielded an EC50 of 2.6 nM.
